Numbers after ± are expanded uncertainties.
Columns and labels:
[1] = for mass density: 293 K, 101.33 kPa, Flotation in CCl4 and Heptane; for Triple point temperature: DTA
[2] = Molar enthalpy of transition or fusion; details: DSC

SMILES	mass density ([1]; Crystal 2) [kg/m3]	Triple point temperature ([1]; Crystal 1) [K]	Molar enthalpy of transition or fusion ([2]; Crystal 1) [kcal/mol]	mass density ([1]; Crystal) [kg/m3]	Triple point temperature ([1]; Crystal) [K]	Molar enthalpy of transition or fusion ([2]; Crystal) [kcal/mol]
CCCCCCCCCC(=O)[O-].[Li+] [lithium decanoate]	1080 ± 40	516.6 ± 1.3	5.92 ± 1.43			
CCCCCCCCCCCC(=O)[O-].[Li+] [lithium dodecanoate]	1060 ± 40	501.95 ± 1.8	6.26 ± 1.36			
CCCCCCCCCCCCCCCCC(=O)[O-].[Li+] [lithium heptadecanoate]	1090 ± 40	498.85 ± 0.59	3.2 ± 0.502			
CCCCCCCCCCCCCCCC(=O)[O-].[Li+] [lithium hexadecanoate]	1050 ± 40	500.89 ± 2.8	3.77 ± 1.2			
CCCCCCCCCCCCCCCCCCC(=O)[O-].[Li+] [lithium nonadecanoate]	1080 ± 40	496.35 ± 1.2	3.69 ± 1.17			
CCCCCCCCC(=O)[O-].[Li+] [lithium nonanoate]	1120 ± 50	524.1 ± 1.2	5.4 ± 0.406			
CCCCCCCCCCCCCCCCCC(=O)[O-].[Li+] [lithium octadecanoate]	1040 ± 40	499.85 ± 0.59	4.05 ± 0.311			
CCCCCCCC(=O)[O-].[Li+] [lithium octanoate]				1080 ± 40	536.8 ± 0.7	5.6 ± 0.227
CCCCCCCCCCCCCCC(=O)[O-].[Li+] [lithium pentadecanoate]	1100 ± 40	501.25 ± 0.39	3.86 ± 0.263			
CCCCCCCCCCCCCC(=O)[O-].[Li+] [lithium tetradecanoate]	1050 ± 40	502.4 ± 1	6.06 ± 8.6			
CCCCCCCCCCCCC(=O)[O-].[Li+] [lithium tridecanoate]	1100 ± 40	504.27 ± 0.4	3.32 ± 0.55			
CCCCCCCCCCC(=O)[O-].[Li+] [lithium undecanoate]	1120 ± 50				507.27 ± 3.1	5.85 ± 0.203

Reference: the NIST ThermoML archive (doi:10.1016/j.jct.2010.11.011)
